Source: patent US7335723B2, “Melanin-concentrating hormone antagonists” (priority 2001, dated 2008)
Where a SMILES comes first, the peptide text is derived from it. Bridges are numbered along the chain shown (N, C = ends). [ ]: non-standard residue; d: D form. The star is where a group is joined. Pentanoyl(5-guanidino) = NC(N)=NCCCCC(=O)*; dNle = CCCC[C@@H](N)C(=O)O; Nle = CCCC[C@H](N)C(=O)O; Abu = CC[C@H](N)C(=O)O; Ava = NCCCCC(=O)O; βAla = NCCC(=O)O

Legend:
rat MCH-1R = rat MCH-1R (Rattus norvegicus, UniProt P97639); test: Aequorin bioluminescence functional assay, MCH-1R agonist activity; details: for MCH-1R Agonist Activation %: 293-AEQ17 cells expressing rat MCH-1R
rat MCH-1R, sequence (P97639 whole entry): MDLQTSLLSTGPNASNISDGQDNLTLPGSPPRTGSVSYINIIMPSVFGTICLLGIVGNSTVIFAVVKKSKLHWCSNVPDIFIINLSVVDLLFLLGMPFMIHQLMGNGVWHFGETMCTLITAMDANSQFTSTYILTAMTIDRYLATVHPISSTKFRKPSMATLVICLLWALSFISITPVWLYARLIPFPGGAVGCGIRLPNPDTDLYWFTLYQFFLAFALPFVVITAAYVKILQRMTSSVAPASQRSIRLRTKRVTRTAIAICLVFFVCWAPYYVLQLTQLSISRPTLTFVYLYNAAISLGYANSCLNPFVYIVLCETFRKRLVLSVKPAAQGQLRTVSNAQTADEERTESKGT

human MCH-2R = human MCH-2R (Homo sapiens, UniProt Q969V1); test: Aequorin bioluminescence functional assay, MCH-2R agonist activity; details: for MCH-2R Agonist Activation %: 293-AEQ17 cells expressing human MCH-2R
human MCH-2R, sequence (Q969V1 whole entry): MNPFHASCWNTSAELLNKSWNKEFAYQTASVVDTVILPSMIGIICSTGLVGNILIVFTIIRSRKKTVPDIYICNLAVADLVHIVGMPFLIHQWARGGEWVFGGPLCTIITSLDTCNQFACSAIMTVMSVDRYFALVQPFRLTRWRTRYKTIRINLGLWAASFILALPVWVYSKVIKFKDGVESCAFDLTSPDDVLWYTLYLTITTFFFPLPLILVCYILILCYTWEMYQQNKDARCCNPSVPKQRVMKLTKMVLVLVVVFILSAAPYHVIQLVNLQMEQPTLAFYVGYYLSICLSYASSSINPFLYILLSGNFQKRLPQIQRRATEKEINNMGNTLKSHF

human MCH-1R = human MCH-1R (Homo sapiens, UniProt Q99705); test: MCH-1R binding assay, inhibition of [125I]-human MCH binding to membranes
human MCH-1R, sequence (Q99705 whole entry): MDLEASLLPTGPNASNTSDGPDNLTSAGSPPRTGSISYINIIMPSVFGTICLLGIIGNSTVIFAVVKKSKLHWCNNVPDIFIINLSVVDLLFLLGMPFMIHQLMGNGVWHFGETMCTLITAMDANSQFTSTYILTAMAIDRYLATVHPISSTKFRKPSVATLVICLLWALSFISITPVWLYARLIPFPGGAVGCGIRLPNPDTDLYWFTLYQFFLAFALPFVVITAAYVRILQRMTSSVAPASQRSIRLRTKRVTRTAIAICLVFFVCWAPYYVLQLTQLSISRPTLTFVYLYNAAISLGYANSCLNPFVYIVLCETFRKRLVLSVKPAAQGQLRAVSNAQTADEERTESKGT

Row | Structure (SMILES) | EC50 (rat MCH-1R) [µM] | MCH-1R Agonist Activation % (rat MCH-1R) [%] | EC50 (human MCH-2R) [µM] | MCH-2R Agonist Activation % (human MCH-2R) [%] | IC50 (human MCH-1R) [µM] | MCH-1R Binding, % @ concentration (human MCH-1R; @ 10 (concentration unit not given), in the IC50 (nM) column) [% @ 10]
1 | CCCC[C@@H]1NC(=O)[C@@H](NC(=O)CCCCNC(=N)N)CSSC[C@@H](C(=O)O)NC(=O)CCCCNC(=O)CCCCNC(=O)[C@H](Cc2ccc(O)cc2)NC(=O)[C@H](C)NC(=O)[C@H](CCCNC(=N)N)NC(=O)CCCCNC(=O)CCCCNC1=O [SEQ. ID. NO. 35] ({Pentanoyl(5-guanidino)}-C[Nle][Ava][Ava]RAY[Ava][Ava]C-OH; disulfide 1-10) | > 10 | 0.1 | > 10 | 25 | > 1 | 
2 | CSCC[C@@H]1NC(=O)[C@@H](NC(=O)[C@H](CCCNC(=N)N)NC(C)=O)CSSC[C@@H](C(N)=O)NC(=O)[C@@H]2CCCN2C(=O)[C@H](CCCNC(=N)N)NC(=O)[C@H](Cc2ccc(O)cc2)NC(=O)[C@H](C(C)C)NC(=O)[C@H](CCCNC(=N)N)NC(=O)CNC(=O)[C@H](CC(C)C)NC1=O [SEQ. ID. NO. 2] | 0.02 | 99 |  |  |  | 
3 | CC(C)[C@@H]1NC(=O)[C@H](CCCNC(=N)N)NC(=O)CCCCNC(=O)CCCCNC(=O)CCCCNC(=O)[C@@H](NC(=O)CCCCNC(=N)N)CSSC[C@@H](C(N)=O)NC(=O)CCCCNC(=O)CCCCNC(=O)[C@H](Cc2ccc(O)cc2)NC1=O [SEQ. ID. NO. 36] | > 10 | 0.1 | > 10 | 24 | > 1 | 
4 | CSCC[C@@H]1NC(=O)[C@@H](NC(=O)[C@H](CCCNC(=N)N)NC(C)=O)CSSC[C@@H](C(N)=O)NC(=O)CCNC(=O)CCNC(=O)[C@H](Cc2ccc(O)cc2)NC(=O)[C@H](C(C)C)NC(=O)[C@H](CCCNC(=N)N)NC(=O)CCNC(=O)CCNC1=O [SEQ. ID. NO. 31] (Ac-RCM[βAla][βAla]RVY[βAla][βAla]C-NH2; disulfide 2-11) | > 10 | 3 | > 10 | 6 |  | 76
5 | CSCC[C@@H]1NC(=O)[C@@H](NC(=O)CCCCNC(=N)N)CSSC[C@@H](C(N)=O)NC(=O)[C@@H]2CCCN2C(=O)[C@H](CCCNC(=N)N)NC(=O)[C@H](Cc2ccc(O)cc2)NC(=O)[C@H](C(C)C)NC(=O)[C@H](CCCNC(=N)N)NC(=O)CCCCNC(=O)CCCCNC1=O [SEQ. ID. NO. 5] ({Pentanoyl(5-guanidino)}-CM[Ava][Ava]RVYRPC-NH2; disulfide 1-10 (inferred); C-terminus assumed) | 0.38 | 10 | > 10 | 31 | 0.0063 | 
6 | C[C@@H]1NC(=O)[C@@H](NC(=O)CCCCNC(=N)N)CSSC[C@@H](C(=O)O)NC(=O)CCCCNC(=O)CCCCNC(=O)[C@H](Cc2ccc(O)cc2)NC(=O)[C@H](C)NC(=O)[C@H](CCCNC(=N)N)NC(=O)CCCCNC(=O)CCCCNC1=O [SEQ. ID. NO. 34] ({Pentanoyl(5-guanidino)}-CA[Ava][Ava]RAY[Ava][Ava]C-OH; disulfide 1-10) | > 10 | 0.1 | > 10 | 28 | > 1 | 
7 | CSCC[C@@H]1NC(=O)[C@@H](NC(=O)[C@H](CCCNC(=N)N)NC(=O)[C@H](CC(C)C)NC(=O)[C@H](CCSC)NC(=O)[C@H](CC(=O)O)NC(=O)[C@H](Cc2ccccc2)NC(=O)[C@@H](N)CC(=O)O)CSSC[C@@H](C(=O)N[C@@H](Cc2c[nH]c3ccccc23)C(=O)N[C@@H](CCC(N)=O)C(=O)N[C@H](C(=O)O)C(C)C)NC(=O)[C@@H]2CCCN2C(=O)[C@H](CCCNC(=N)N)NC(=O)[C@H](Cc2ccc(O)cc2)NC(=O)[C@H](C(C)C)NC(=O)[C@H](CCCNC(=N)N)NC(=O)CNC(=O)[C@H](CC(C)C)NC1=O [hMCH, reference compound] | 0.0309 | 100 |  | 100 |  | 
8 | CSCC[C@@H]1NC(=O)[C@@H](NC(=O)[C@@H](CCCNC(=N)N)NC(C)=O)CSSC[C@@H](C(N)=O)NC(=O)[C@@H]2CCCN2C(=O)[C@H](CCCNC(=N)N)NC(=O)[C@H](Cc2ccc(O)cc2)NC(=O)[C@H](C(C)C)NC(=O)[C@H](CCCNC(=N)N)NC(=O)CCCCNC(=O)CCCCNC1=O [SEQ. ID. NO. 4] (Ac-[dR]CM[Ava][Ava]RVYRPC-NH2; disulfide 2-11 (inferred); C-terminus assumed) | 1.08 | 72 | > 10 | 7 | 0.0037 | 

Now from value to molecule:

Row | EC50 (rat MCH-1R) [µM] | MCH-1R Agonist Activation % (rat MCH-1R) [%] | EC50 (human MCH-2R) [µM] | MCH-2R Agonist Activation % (human MCH-2R) [%] | IC50 (human MCH-1R) [µM] | MCH-1R Binding, % @ concentration (human MCH-1R; @ 10 (concentration unit not given), in the IC50 (nM) column) [% @ 10] | Structure (SMILES)
9 | 0.544 | 43 | > 10 | 91 | 0.223 |  | CCCC[C@H]1NC(=O)[C@H](CC(C)C)NC(=O)[C@H](CCSC)NC(=O)[C@@H](NC(=O)[C@H](CCCNC(=N)N)NC(C)=O)CSSC[C@@H](C(N)=O)NC(=O)CCCCNC(=O)CCCCNC(=O)[C@H](Cc2ccc(O)cc2)NC(=O)[C@H](C(C)C)NC(=O)[C@H](CCCNC(=N)N)NC1=O [SEQ. ID. NO. 26] (Ac-RCML[dNle]RVY[Ava][Ava]C-NH2; disulfide 2-11; C-terminus assumed)
10 | 0.406 | 75 | > 10 |  | 0.0066 |  | CSCC[C@@H]1NC(=O)[C@@H](NC(=O)[C@H](CCCNC(=N)N)NC(C)=O)CSSC[C@@H](C(N)=O)NC(=O)CCCCNC(=O)CCCCNC(=O)[C@H](Cc2ccc(O)cc2)NC(=O)[C@H](C(C)C)NC(=O)[C@H](CCCNC(=N)N)NC(=O)CNC(=O)[C@H](CC(C)C)NC1=O [SEQ. ID. NO. 8] (Ac-RCMLGRVY[Ava][Ava]C-NH2; disulfide 2-11; C-terminus assumed)
11 |  |  | > 10 | 7 | 0.7 |  | CSCC[C@@H]1NC(=O)[C@@H](NC(=O)[C@H](CCCNC(=N)N)NC(C)=O)CSSC[C@@H](C(N)=O)NC(=O)CCCCNC(=O)CCCCNC(=O)[C@H](Cc2ccc(O)cc2)NC(=O)[C@H](C(C)C)NC(=O)[C@H](CCCNC(=N)N)NC(=O)[C@H]2CCCN2C(=O)[C@H](CC(C)C)NC1=O [SEQ. ID. NO. 28] (Ac-RCML[dP]RVY[Ava][Ava]C-NH2; disulfide 2-11 (inferred); C-terminus assumed)
12 | 1.3 | 28 | > 10 | 18 | 0.0195 |  | CSCC[C@@H]1NC(=O)[C@@H](NC(=O)[C@@H](CCCNC(=N)N)NC(C)=O)CSSC[C@@H](C(N)=O)NC(=O)CCCCNC(=O)CCCCNC(=O)[C@H](Cc2ccc(O)cc2)NC(=O)[C@H](C(C)C)NC(=O)[C@H](CCCNC(=N)N)NC(=O)CNC(=O)[C@H](CC(C)C)NC1=O [SEQ. ID. NO. 10] (Ac-[dR]CMLGRVY[Ava][Ava]C-NH2; disulfide 2-11 (inferred); C-terminus assumed)
13 | > 10 | 0.1 | > 10 | 26 | > 1 |  | CSCC[C@@H]1NC(=O)[C@@H](NC(=O)CCCCNC(=N)N)CSSC[C@@H](C(N)=O)NC(=O)CCCCNC(=O)CCCCNC(=O)[C@H](Cc2ccc(O)cc2)NC(=O)[C@H](C(C)C)NC(=O)[C@H](CCCNC(=N)N)NC(=O)CNC1=O [SEQ. ID. NO. 23] ({Pentanoyl(5-guanidino)}-CMGRVY[Ava][Ava]C-NH2; disulfide 1-9)
14 | > 10 | 0.1 | > 10 | 25 | > 1 |  | CSCC[C@@H]1NC(=O)[C@@H](NC(=O)CCCCNC(=N)N)CSSC[C@@H](C(N)=O)NC(=O)CNC(=O)[C@H](Cc2ccc(O)cc2)NC(=O)[C@H](C(C)C)NC(=O)[C@H](CCCNC(=N)N)NC(=O)CCCCNC(=O)CCCCNC1=O [SEQ. ID. NO. 6] ({Pentanoyl(5-guanidino)}-CM[Ava][Ava]RVYGC-NH2; disulfide 1-9)
15 | > 10 | 3 | > 10 | 17 | 0.35 |  | CSCC[C@@H]1NC(=O)[C@H](NC(=O)[C@H](CCCNC(=N)N)NC(C)=O)CSSC[C@@H](C(N)=O)NC(=O)CCCCNC(=O)CCCCNC(=O)[C@H](Cc2ccc(O)cc2)NC(=O)[C@H](C(C)C)NC(=O)[C@H](CCCNC(=N)N)NC(=O)CNC(=O)[C@H](CC(C)C)NC1=O [SEQ. ID. NO. 24] (Ac-R[dC]MLGRVY[Ava][Ava]C-NH2; disulfide 2-11; C-terminus assumed)
16 | > 10 | 0.1 | 1.83 | 25 | > 1 |  | CC(=O)N[C@@H](CCCNC(=N)N)C(=O)N[C@H]1CSSC[C@@H](C(N)=O)NC(=O)CCCCNC(=O)CCCCNC(=O)[C@H](Cc2ccc(O)cc2)NC(=O)[C@H](C(C)C)NC(=O)[C@H](CCCNC(=N)N)NC(=O)CNC(=O)[C@H](CC(C)C)NC(=O)[C@H](C)NC1=O [SEQ. ID. NO. 22] (Ac-RCALGRVY[Ava][Ava]C-NH2; disulfide 2-11; C-terminus assumed)
17 | > 10 | 3 | > 10 | 7 | 0.83 |  | CC[C@@H]1NC(=O)[C@@H](NC(=O)CCCCNC(=N)N)CSSC[C@@H](C(N)=O)NC(=O)CCCCNC(=O)CCCCNC(=O)[C@H](Cc2ccc(O)cc2)NC(=O)[C@H](C(C)C)NC(=O)[C@H](CCCNC(=N)N)NC(=O)CNC(=O)[C@H](CC(C)C)NC1=O [SEQ. ID. NO. 17] ({Pentanoyl(5-guanidino)}-C[Abu]LGRVY[Ava][Ava]C-NH2; disulfide 1-10; C-terminus assumed)
18 | > 10 | 0.1 | > 10 | 25 | 0.066 |  | CSCC[C@@H]1NC(=O)[C@H](NC(=O)CCCCNC(=N)N)CSSC[C@@H](C(N)=O)NC(=O)CCCCNC(=O)CCCCNC(=O)[C@H](Cc2ccc(O)cc2)NC(=O)[C@H](C(C)C)NC(=O)[C@H](CCCNC(=N)N)NC(=O)CNC(=O)[C@H](CC(C)C)NC1=O [SEQ. ID. NO. 25]
